Measured values: US20250059171A1 (Hoffmann-La Roche Inc., priority 2021, published 2025)
pIC50: −log10 of the molar value. Read-outs that look alike come from different tables or passages of the source.

How the values were obtained:
HCoV-229E 3CLpro = HCoV-229E 3CLpro (Human coronavirus 229E, UniProt P0C6X1); experiment: HCoV-229E 3CLpro inhibition assay (FRET); assay type: biochemical
MERS-CoV 3CLpro = MERS-CoV 3CLpro (Middle East respiratory syndrome-related coronavirus, UniProt K9N7C7); experiment: biochemical
MERS-CoV 3CLpro, sequence (K9N7C7 3248-3553): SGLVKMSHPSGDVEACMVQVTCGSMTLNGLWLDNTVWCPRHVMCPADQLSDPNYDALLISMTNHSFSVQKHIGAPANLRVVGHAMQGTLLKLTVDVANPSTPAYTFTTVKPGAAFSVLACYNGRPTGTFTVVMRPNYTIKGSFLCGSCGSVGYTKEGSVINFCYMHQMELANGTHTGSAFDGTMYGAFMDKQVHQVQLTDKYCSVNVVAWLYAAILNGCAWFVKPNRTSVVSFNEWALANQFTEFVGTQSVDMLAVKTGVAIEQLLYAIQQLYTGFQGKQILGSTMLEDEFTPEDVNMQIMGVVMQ

SARS-CoV 3CLpro = SARS-CoV 3CLpro (Severe acute respiratory syndrome coronavirus, UniProt P0C6X7); experiment: biochemical
SARS-CoV-2 3CLpro = SARS-CoV-2 3CLpro (Severe acute respiratory syndrome coronavirus 2, UniProt P0DTD1); experiment: biochemical

HCoV-229E 3CLpro, sequence (P0C6X1 2966-3267): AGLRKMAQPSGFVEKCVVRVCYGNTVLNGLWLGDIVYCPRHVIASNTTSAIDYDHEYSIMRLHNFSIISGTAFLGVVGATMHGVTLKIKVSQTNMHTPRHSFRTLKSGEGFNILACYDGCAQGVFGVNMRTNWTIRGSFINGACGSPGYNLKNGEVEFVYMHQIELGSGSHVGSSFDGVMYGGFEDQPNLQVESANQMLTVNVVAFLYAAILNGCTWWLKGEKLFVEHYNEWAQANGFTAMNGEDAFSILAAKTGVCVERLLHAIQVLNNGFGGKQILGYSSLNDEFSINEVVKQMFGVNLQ

CC1([C@H](NC(=O)C(F)(F)F)C(=O)N2CC3(CC3)C[C@H]2C(=O)NN(C[C@@H]2CCNC2=O)C(=O)[C@H](F)Cl)CC1 [Example 24, N-[(1S)-2-[(6S)-6-[[[(2R)-2-chloro-2-fluoro-acetyl]-[[(3S)-2-oxopyrrolidin-3-yl]methyl]amino]carbamoyl]-5-azaspiro[2.4]heptan-5-yl]-1-(1-methylcyclopropyl)-2-oxo-ethyl]-2,2,2-trifluoro-acetamide]
pIC50 (HCoV-229E 3CLpro): 7.51 | pIC50 (MERS-CoV 3CLpro): 6.94 | pIC50 (SARS-CoV 3CLpro): 7.89 | pIC50 (SARS-CoV-2 3CLpro): 7.74

CCC(C)(C)[C@H](NC(=O)C1(F)CC1)C(=O)N1C[C@@H]2CCC[C@@H]2[C@H]1C(=O)NN(C[C@@H]1CCNC1=O)C(=O)[C@H](F)Cl [Example 149, N-[(1S)-1-[(3S,3aS,6aR)-3-[[[(2R)-2-chloro-2-fluoro-acetyl]-[[(3S)-2-oxopyrrolidin-3-yl]methyl]amino]carbamoyl]-3,3a,4,5,6,6a-hexahydro-1H-cyclopenta[c]pyrrole-2-carbonyl]-2,2-dimethyl-butyl]-1-fluoro-cyclopropanecarboxamide]
pIC50 (HCoV-229E 3CLpro): 7.35 | pIC50 (MERS-CoV 3CLpro): 6.86 | pIC50 (SARS-CoV 3CLpro): 7.82 | pIC50 (SARS-CoV-2 3CLpro; read-out: IC50 in SARS-CoV-2 3CLpro assay): 8.22

CCC(CC)[C@H](NC(=O)C(F)F)C(=O)N1C[C@H]2[C@@H]([C@H]1C(=O)NN(C[C@@H]1CCCNC1=O)C(=O)[C@H](F)Cl)C2(C)C [Example 173, N-[(1S)-1-[(1R,2S,5S)-2-[[[(2R)-2-chloro-2-fluoro-acetyl]-[[(3S)-2-oxo-3-piperidyl]methyl]amino]carbamoyl]-6,6-dimethyl-3-azabicyclo[3.1.0]hexane-3-carbonyl]-2-ethyl-butyl]-2,2-difluoro-acetamide]
pIC50 (HCoV-229E 3CLpro): 7.57 | pIC50 (MERS-CoV 3CLpro): 6.76 | pIC50 (SARS-CoV 3CLpro): 7.74 | pIC50 (SARS-CoV-2 3CLpro): 7.89

CC(C)(C)[C@H](NC(=O)C(F)(F)F)C(=O)N1C[C@H]2[C@@H]([C@H]1C(=O)NN(CCC(N)=O)C(=O)[C@H](F)Cl)C2(C)C [Example 87, 3-[[(2R)-2-chloro-2-fluoro-acetyl]-[[(1R,2S,5S)-3-[(2S)-3,3-dimethyl-2-[(2,2,2-trifluoroacetyl)amino]butanoyl]-6,6-dimethyl-3-azabicyclo[3.1.0]hexane-2-carbonyl]amino]amino]propanamide]
pIC50 (HCoV-229E 3CLpro): 7.72 | pIC50 (MERS-CoV 3CLpro): 7.14 | pIC50 (SARS-CoV 3CLpro): 8.03 | pIC50 (SARS-CoV-2 3CLpro): 7.85

CC1(C)[C@@H]2[C@@H](C(=O)NN(C[C@@H]3CCNC3=O)C(=O)[C@@H](F)Cl)N(C(=O)[C@@H](NC(=O)C3(F)CC3)C3CCC3)C[C@@H]21 [Example 157, N-[(1S)-2-[(1R,2S,5S)-2-[[[(2S)-2-chloro-2-fluoro-acetyl]-[[(3S)-2-oxopyrrolidin-3-yl]methyl]amino]carbamoyl]-6,6-dimethyl-3-azabicyclo[3.1.0]hexan-3-yl]-1-cyclobutyl-2-oxo-ethyl]-1-fluoro-cyclopropanecarboxamide]
pIC50 (HCoV-229E 3CLpro): 7.22 | pIC50 (MERS-CoV 3CLpro): 6.83 | pIC50 (SARS-CoV 3CLpro): 7.24 | pIC50 (SARS-CoV-2 3CLpro): 7.36

CC[C@H](C)[C@H](NC(=O)C(C)(C)C)C(=O)N1C[C@@H]2CCC[C@@H]2[C@H]1C(=O)NN(C[C@@H]1CCNC1=O)C(=O)[C@H](F)Cl [Example 44, N-[(1S,2S)-1-[(3S,3aS,6aR)-3-[[[(2R)-2-chloro-2-fluoro-acetyl]-[[(3S)-2-oxopyrrolidin-3-yl]methyl]amino]carbamoyl]-3,3a,4,5,6,6a-hexahydro-1H-cyclopenta[c]pyrrole-2-carbonyl]-2-methyl-butyl]-2,2-dimethyl-propanamide]
pIC50 (HCoV-229E 3CLpro): 7.64 | pIC50 (MERS-CoV 3CLpro): 7.26 | pIC50 (SARS-CoV 3CLpro): 7.96 | pIC50 (SARS-CoV-2 3CLpro): 8.10

CC(C)(C)[C@H](NC(=O)C(F)(F)F)C(=O)N1C[C@H]2[C@@H]([C@H]1C(=O)NN(C[C@@H]1CCCNC1=O)C(=O)[C@H](F)Cl)C2(C)C (single isomer, unassigned) [Example 163b]
pIC50 (HCoV-229E 3CLpro): 6.98 | pIC50 (MERS-CoV 3CLpro): 6.33 | pIC50 (SARS-CoV 3CLpro): 7.48 | pIC50 (SARS-CoV-2 3CLpro): 7.77
